In PubChem BioAssay AID1259407 (Chemical Carcinogenesis Research Information System (CCRIS), 2018):
The source made the active and inactive calls. The rule behind the calls is not given here.

Tested on: CCRIS mutagenicity, Ames/micronucleus/aberration tests
Assay: CCRIS mutagenicity studies
From the text: The CCRIS database contains chemical records with carcinogenicity, mutagenicity, tumor promotion, and tumor inhibition test results. It was developed by the National Cancer Institute (NCI). Data are derived from studies cited in primary journals, current awareness tools, NCI reports, and other sources. Test results have been reviewed by experts in carcinogenesis and mutagenesis.
CCRIS provides historical information from the years 1985 - 2011. It is no longer updated.
This is an archive assay for CCRIS mutagenicity studies.

[1] = Test System: AMES SALMONELLA TYPHIMURIUM, Strain/Indicator: TA98, Metabolic Activation: NONE, Method: PREINCUBATION
[2] = Test System: AMES SALMONELLA TYPHIMURIUM, Strain/Indicator: TA100, Metabolic Activation: NONE, Method: PREINCUBATION
[3] = Test System: AMES SALMONELLA TYPHIMURIUM, Strain/Indicator: TA100, Metabolic Activation: RAT, LIVER, S-9, AROCLOR 1254 (10%), Method: PREINCUBATION
[4] = Test System: AMES SALMONELLA TYPHIMURIUM, Strain/Indicator: TA1535, Metabolic Activation: HAMSTER, LIVER, S-9, AROCLOR 1254 (10%), Method: PREINCUBATION
[5] = Test System: AMES SALMONELLA TYPHIMURIUM, Strain/Indicator: TA1535, Metabolic Activation: NONE, Method: PREINCUBATION
[6] = Test System: AMES SALMONELLA TYPHIMURIUM, Strain/Indicator: TA1535, Metabolic Activation: RAT, LIVER, S-9, AROCLOR 1254 (10%), Method: PREINCUBATION

Measured: mutagenic call

Cc1ccccc1Br
inactive: Test System: AMES SALMONELLA TYPHIMURIUM, Strain/Indicator: TA97, Metabolic Activation: HAMSTER, LIVER, S-9, AROCLOR 1254 (10%), Method: PREINCUBATION inactive; negative | Test System: AMES SALMONELLA TYPHIMURIUM, Strain/Indicator: TA97, Metabolic Activation: HAMSTER, LIVER, S-9, AROCLOR 1254 (30%), Method: PREINCUBATION inactive; negative | Test System: AMES SALMONELLA TYPHIMURIUM, Strain/Indicator: TA97, Metabolic Activation: NONE, Method: PREINCUBATION inactive; negative | Test System: AMES SALMONELLA TYPHIMURIUM, Strain/Indicator: TA97, Metabolic Activation: RAT, LIVER, S-9, AROCLOR 1254 (10%), Method: PREINCUBATION inactive; negative | Test System: AMES SALMONELLA TYPHIMURIUM, Strain/Indicator: TA97, Metabolic Activation: RAT, LIVER, S-9, AROCLOR 1254 (30%), Method: PREINCUBATION inactive; negative | Test System: AMES SALMONELLA TYPHIMURIUM, Strain/Indicator: TA98, Metabolic Activation: HAMSTER, LIVER, S-9, AROCLOR 1254 (10%), Method: PREINCUBATION inactive; negative | Test System: AMES SALMONELLA TYPHIMURIUM, Strain/Indicator: TA98, Metabolic Activation: HAMSTER, LIVER, S-9, AROCLOR 1254 (30%), Method: PREINCUBATION inactive; negative | [1] inactive; negative | Test System: AMES SALMONELLA TYPHIMURIUM, Strain/Indicator: TA98, Metabolic Activation: RAT LIVER S-9, PHENOBARBITAL AND BETA-NAPHTHOFLAVONE, Method: PREINCUBATION inactive; negative | Test System: AMES SALMONELLA TYPHIMURIUM, Strain/Indicator: TA98, Metabolic Activation: RAT, LIVER, S-9, AROCLOR 1254 (10%), Method: PREINCUBATION inactive; negative | Test System: AMES SALMONELLA TYPHIMURIUM, Strain/Indicator: TA98, Metabolic Activation: RAT, LIVER, S-9, AROCLOR 1254 (30%), Method: PREINCUBATION inactive; negative | Test System: AMES SALMONELLA TYPHIMURIUM, Strain/Indicator: TA100, Metabolic Activation: HAMSTER, LIVER, S-9, AROCLOR 1254 (10%), Method: PREINCUBATION inactive; negative | Test System: AMES SALMONELLA TYPHIMURIUM, Strain/Indicator: TA100, Metabolic Activation: HAMSTER, LIVER, S-9, AROCLOR 1254 (30%), Method: PREINCUBATION inactive; negative | [2] inactive; negative | Test System: AMES SALMONELLA TYPHIMURIUM, Strain/Indicator: TA100, Metabolic Activation: RAT LIVER S-9, PHENOBARBITAL AND BETA-NAPHTHOFLAVONE, Method: PREINCUBATION inactive; negative | [3] inactive; negative | Test System: AMES SALMONELLA TYPHIMURIUM, Strain/Indicator: TA100, Metabolic Activation: RAT, LIVER, S-9, AROCLOR 1254 (30%), Method: PREINCUBATION inactive; negative | Test System: AMES SALMONELLA TYPHIMURIUM, Strain/Indicator: TA102, Metabolic Activation: NONE, Method: PREINCUBATION inactive; negative | Test System: AMES SALMONELLA TYPHIMURIUM, Strain/Indicator: TA102, Metabolic Activation: RAT LIVER S-9, PHENOBARBITAL AND BETA-NAPHTHOFLAVONE, Method: PREINCUBATION inactive; negative | Test System: AMES SALMONELLA TYPHIMURIUM, Strain/Indicator: TA104, Metabolic Activation: NONE, Method: PREINCUBATION inactive; negative | Test System: AMES SALMONELLA TYPHIMURIUM, Strain/Indicator: TA104, Metabolic Activation: RAT LIVER S-9, PHENOBARBITAL AND BETA-NAPHTHOFLAVONE, Method: PREINCUBATION inactive; negative | [4] inactive; negative | Test System: AMES SALMONELLA TYPHIMURIUM, Strain/Indicator: TA1535, Metabolic Activation: HAMSTER, LIVER, S-9, AROCLOR 1254 (30%), Method: PREINCUBATION inactive; negative | [5] inactive; negative | Test System: AMES SALMONELLA TYPHIMURIUM, Strain/Indicator: TA1535, Metabolic Activation: RAT LIVER S-9, PHENOBARBITAL AND BETA-NAPHTHOFLAVONE, Method: PREINCUBATION inactive; negative | [6] inactive; negative | Test System: AMES SALMONELLA TYPHIMURIUM, Strain/Indicator: TA1535, Metabolic Activation: RAT, LIVER, S-9, AROCLOR 1254 (30%), Method: PREINCUBATION inactive; negative | Test System: AMES SALMONELLA TYPHIMURIUM, Strain/Indicator: TA1537, Metabolic Activation: HAMSTER, LIVER, S-9, AROCLOR 1254 (30%), Method: PREINCUBATION inactive; negative | Test System: AMES SALMONELLA TYPHIMURIUM, Strain/Indicator: TA1537, Metabolic Activation: NONE, Method: PREINCUBATION inactive; negative | Test System: AMES SALMONELLA TYPHIMURIUM, Strain/Indicator: TA1537, Metabolic Activation: RAT LIVER S-9, PHENOBARBITAL AND BETA-NAPHTHOFLAVONE, Method: PREINCUBATION inactive; negative | Test System: AMES SALMONELLA TYPHIMURIUM, Strain/Indicator: TA1537, Metabolic Activation: RAT, LIVER, S-9, AROCLOR 1254 (30%), Method: PREINCUBATION inactive; negative | Test System: E.COLI, Strain/Indicator: WP2UVRA/PKM101, Metabolic Activation: NONE, Method: PREINCUBATION inactive; negative | Test System: E.COLI, Strain/Indicator: WP2UVRA/PKM101, Metabolic Activation: RAT LIVER S-9, PHENOBARBITAL AND BETA-NAPHTHOFLAVONE, Method: PREINCUBATION inactive; negative | Test System: E.COLI, Strain/Indicator: WP2UVRA, Metabolic Activation: NONE, Method: PREINCUBATION inactive; negative | Test System: E.COLI, Strain/Indicator: WP2UVRA, Metabolic Activation: RAT LIVER S-9, PHENOBARBITAL AND BETA-NAPHTHOFLAVONE, Method: PREINCUBATION inactive; negative

Cc1ccc2cccc([N+](=O)[O-])c2c1
active: [1] active; positive

CC(C)(Oc1ccc(C(=O)c2ccc(Cl)cc2)cc1)C(=O)O
inactive: Test System: AMES SALMONELLA TYPHIMURIUM, Strain/Indicator: TA98, Metabolic Activation: NONE, Method: STANDARD PLATE inactive; negative | Test System: AMES SALMONELLA TYPHIMURIUM, Strain/Indicator: TA98, Metabolic Activation: RAT, LIVER, S-9, PHENOBARBITAL AND 5,6-BENZOFLAVONE, Method: STANDARD PLATE inactive; negative | Test System: AMES SALMONELLA TYPHIMURIUM, Strain/Indicator: TA100, Metabolic Activation: NONE, Method: STANDARD PLATE inactive; negative | Test System: AMES SALMONELLA TYPHIMURIUM, Strain/Indicator: TA100, Metabolic Activation: RAT, LIVER, S-9, PHENOBARBITAL AND 5,6-BENZOFLAVONE, Method: STANDARD PLATE inactive; negative | Test System: AMES SALMONELLA TYPHIMURIUM, Strain/Indicator: TA1535, Metabolic Activation: NONE, Method: STANDARD PLATE inactive; negative | Test System: AMES SALMONELLA TYPHIMURIUM, Strain/Indicator: TA1535, Metabolic Activation: RAT, LIVER, S-9, PHENOBARBITAL AND 5,6-BENZOFLAVONE, Method: STANDARD PLATE inactive; negative | Test System: AMES SALMONELLA TYPHIMURIUM, Strain/Indicator: TA1537, Metabolic Activation: NONE, Method: STANDARD PLATE inactive; negative | Test System: AMES SALMONELLA TYPHIMURIUM, Strain/Indicator: TA1537, Metabolic Activation: RAT, LIVER, S-9, PHENOBARBITAL AND 5,6-BENZOFLAVONE, Method: STANDARD PLATE inactive; negative | Test System: E. COLI, Strain/Indicator: WP2 UVRA, Metabolic Activation: NONE, Method: STANDARD PLATE inactive; negative | Test System: E. COLI, Strain/Indicator: WP2 UVRA, Metabolic Activation: RAT, LIVER, S-9, PHENOBARBITAL AND 5,6-BENZOFLAVONE, Method: STANDARD PLATE inactive; negative

Cc1ccc(OCC2CO2)cc1 (stereo unspecified)
active: [2] active; positive | [3] active; positive | [4] active; positive | [5] active; positive | [6] active; positive
